Our source for the Relative activity values is ChEMBL document CHEMBL1123642, “Design and synthesis of phosphonate inhibitors of glutamine synthetase” (J Med Chem, 1987).

The target of assay [1] is glutamine synthetase (Escherichia coli) (UniProt P0A9C5). Description: Tested for the inhibition of Glutamine synthetase (Escherichia coli) activity using Gamma-glutamyl transferase assay [[…] (pH 7), 5 mM MgCl2] at a concentration of 0.1 mM.
For assay [2], the system named is glutamine synthetase (Pisum sativum). Nature of the assay: Tested for the inhibition of Glutamine synthetase (Pea seed) activity using Gamma-glutamyl transferase assay [[…] (pH 7), 5 mM MgCl2] at a concentration of 0.1 mM. The settings on record: Lathyrus oleraceus.
Assay [3] shares this test system. Description: Tested for the inhibition of Glutamine synthetase (Pea seed) activity using Gamma-glutamyl transferase assay [[…] (pH 7), 5 mM MgCl2] at a concentration of 0 mM. The note with it: Lathyrus oleraceus.
The target in assay [4] is glutamine synthetase (Escherichia coli) (UniProt P0A9C5). Description: Tested for the inhibition of Glutamine synthetase (Escherichia coli) activity using biosynthetic assay [[…] (pH 7), 5 mM MgCl2] at a concentration of 10.0 mM.
Assay [5] deals with glutamine synthetase (Ovis aries). Nature of the assay: Tested for the inhibition of Glutamine synthetase (Ovine brain) activity using biosynthetic assay [[…] (pH 7), 5 mM MgCl2] at a concentration of 0 mM.
The target in assay [6] is glutamine synthetase (Escherichia coli) (UniProt P0A9C5). Nature of the assay: Tested for the inhibition of Glutamine synthetase (Escherichia coli) activity using biosynthetic assay [[…] (pH 7), 5 mM MgCl2] at a concentration of 0.1 mM.
Assay [7] relates to glutamine synthetase (Pisum sativum). Nature of the assay: Tested for the inhibition of Glutamine synthetase (Pea seed) activity using biosynthetic assay [[…] (pH 7), 5 mM MgCl2] at a concentration of 1.0 mM. The settings on record: Lathyrus oleraceus.
The test system of assay [8] is glutamine synthetase (Ovis aries). Description: Tested for the inhibition of Glutamine synthetase (Ovine brain) activity using biosynthetic assay [[…] (pH 7), 5 mM MgCl2] at a concentration of 0.1 mM.
Assay [9] shares this test system. Nature of the assay: Tested for the inhibition of Glutamine synthetase (Ovine brain) activity using Gamma-glutamyl transferase assay [[…] (pH 7), 5 mM MgCl2] at a concentration of 0 mM.
The subject of assay [10] is glutamine synthetase (Pisum sativum). Nature of the assay: Tested for the inhibition of Glutamine synthetase (Pea seed) activity using biosynthetic assay [[…] (pH 7), 5 mM MgCl2] at a concentration of 10.0 mM. The note with it: Lathyrus oleraceus.
The subject of assay [11] is glutamine synthetase (Ovis aries). Nature of the assay: Tested for the inhibition of Glutamine synthetase (Ovine brain) activity using biosynthetic assay [[…] (pH 7), 5 mM MgCl2] at a concentration of 10.0 mM.
Assay [12] shares this test system. Nature of the assay: Tested for the inhibition of Glutamine synthetase (Ovine brain) activity using Gamma-glutamyl transferase assay [[…] (pH 7), 5 mM MgCl2] at a concentration of 10.0 mM.
Assay [13] deals with glutamine synthetase (Pisum sativum). Nature of the assay: Tested for the inhibition of Glutamine synthetase (Pea seed) activity using Gamma-glutamyl transferase assay [[…] (pH 7), 5 mM MgCl2] at a concentration of 10.0 mM. The note with it: Lathyrus oleraceus.
For assay [14] the test system is unchanged. Description: Tested for the inhibition of Glutamine synthetase (Pea seed) activity using biosynthetic assay [[…] (pH 7), 5 mM MgCl2] at a concentration of 0 mM. The settings on record: Lathyrus oleraceus.
For assay [15], the system named is glutamine synthetase (Ovis aries). Description: Tested for the inhibition of Glutamine synthetase (Ovine brain) activity using Gamma-glutamyl transferase assay [[…] (pH 7), 5 mM MgCl2] at a concentration of 0.1 mM.
Assay [16] concerns the target glutamine synthetase (Escherichia coli) (UniProt P0A9C5). Nature of the assay: Tested for the inhibition of Glutamine synthetase (Escherichia coli) activity using Gamma-glutamyl transferase assay [[…] (pH 7), 5 mM MgCl2] at a concentration of 10.0 mM.
Assay [17] has as its system glutamine synthetase (Ovis aries). Nature of the assay: Tested for the inhibition of Glutamine synthetase (Ovine brain) activity using biosynthetic assay [[…] (pH 7), 5 mM MgCl2] at a concentration of 1.0 mM.
The test system of assay [18] is glutamine synthetase (Pisum sativum). Nature of the assay: Tested for the inhibition of Glutamine synthetase (Pea seed) activity using biosynthetic assay [[…] (pH 7), 5 mM MgCl2] at a concentration of 0.1 mM. The settings on record: Lathyrus oleraceus.
Assay [19] concerns glutamine synthetase (Ovis aries). Nature of the assay: Tested for the inhibition of Glutamine synthetase (Ovine brain) activity using Gamma-glutamyl transferase assay [[…] (pH 7), 5 mM MgCl2] at a concentration of 1.0 mM.
Assay [20] deals with glutamine synthetase (Escherichia coli) (UniProt P0A9C5). Description: Tested for the inhibition of Glutamine synthetase (Escherichia coli) activity using Gamma-glutamyl transferase assay [[…] (pH 7), 5 mM MgCl2] at a concentration of 1.0 mM.
Assay [21] has the same target. Description: Tested for the inhibition of Glutamine synthetase (Escherichia coli) activity using biosynthetic assay [[…] (pH 7), 5 mM MgCl2] at a concentration of 0 mM.
In assay [22] the test system is glutamine synthetase (Pisum sativum). Nature of the assay: Tested for the inhibition of Glutamine synthetase (Pea seed) activity using Gamma-glutamyl transferase assay [[…] (pH 7), 5 mM MgCl2] at a concentration of 1.0 mM. The note with it: Lathyrus oleraceus.
Assay [23] concerns the target glutamine synthetase (Escherichia coli) (UniProt P0A9C5). Nature of the assay: Tested for the inhibition of Glutamine synthetase (Escherichia coli) activity using biosynthetic assay [[…] (pH 7), 5 mM MgCl2] at a concentration of 1.0 mM.
Assay [24] has the same target. Description: Tested for the inhibition of Glutamine synthetase (Escherichia coli) activity using Gamma-glutamyl transferase assay [[…] (pH 7), 5 mM MgCl2] at a concentration of 0 mM.
Assay [25] has as its system glutamine synthetase (Pisum sativum). Nature of the assay: Tested for the inhibition of Glutamine synthetase(Pea seed) activity using Gamma-glutamyl transferase assay [[…] (pH 7), 5 mM MgCl2] at a concentration of 10.0 mM. The note with it: Lathyrus oleraceus.

Chain of glutamine synthetase (Escherichia coli) (P0A9C5 whole entry, looked up): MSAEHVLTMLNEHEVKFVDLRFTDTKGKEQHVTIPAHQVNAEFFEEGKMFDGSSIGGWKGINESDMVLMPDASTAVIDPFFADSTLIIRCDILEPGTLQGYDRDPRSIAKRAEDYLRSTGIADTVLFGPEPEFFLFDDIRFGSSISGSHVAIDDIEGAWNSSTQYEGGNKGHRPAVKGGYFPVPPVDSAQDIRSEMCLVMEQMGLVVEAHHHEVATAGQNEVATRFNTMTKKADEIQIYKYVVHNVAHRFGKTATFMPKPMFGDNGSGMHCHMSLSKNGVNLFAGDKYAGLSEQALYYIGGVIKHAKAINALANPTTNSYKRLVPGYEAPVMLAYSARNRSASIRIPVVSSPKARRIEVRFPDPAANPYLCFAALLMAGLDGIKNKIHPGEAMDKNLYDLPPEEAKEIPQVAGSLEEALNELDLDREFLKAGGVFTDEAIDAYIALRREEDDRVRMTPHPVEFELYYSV

For the compound `CC(N)(CCSCP(=O)(O)O)C(=O)O` (stereo not given), the Relative activity in assay [1] was found to be 1.1; in assay [2] it was 1; in assay [3], 1; in [4], 1.25; in assay [5], 1; in [6], 1. Also, the Relative activity in [7] was determined as 1.2; in assay [8], 1; in assay [9], 1; in [10] it was 0.5; in assay [11] it was 1.2; in assay [12], 1.1. Moreover, the Relative activity in assay [13] was determined as 1; in assay [14], 1; in assay [15], 1; in assay [16], 1.5; in [17], 1; in assay [18], 1. Further, the Relative activity turned out to be 1 in assay [19]; 1.4 in assay [20]; 1 in [21]; 1 in assay [22]; 1.95 in [23]; 1 in assay [24].
For the compound `CC(N)(CC[S+]([O-])CP(=O)(O)O)C(=O)O` (stereo not given), the Relative activity in assay [1] amounted to 1; in assay [2] it was 0.9; in assay [4], 0.95; in assay [6] it was 1.2; in assay [7], 1.1; in [8], 1.2. For the same compound, the Relative activity was 0.75 in assay [10]; 1 in assay [11]; 1.2 in assay [12]; 1 in assay [13]; 1 in assay [15]; 1.5 in assay [16]. Also, the Relative activity was determined as 1.2 in assay [17]; 1.1 in [18]; 1 in assay [19]; 1 in assay [20]; 0.9 in assay [22]; 1.2 in [23].
With `CC(N)(CCS(=O)(=O)CP(=O)(O)O)C(=O)O` (stereo not given), the Relative activity in assay [1] was 1.1; in assay [2], 0.8; in [25], 0.9; in assay [4], 1; in assay [6], 1.1; in assay [7], 0.8. The Relative activity was 1.2 in [8]; 0.85 in assay [10]; 1 in assay [11]; 0.8 in assay [12]; 0.95 in [15]; 1 in assay [16]. Moreover, the Relative activity in assay [17] was determined as 1; in [18], 1.1; in assay [19], 0.9; in [20], 1.1; in assay [22], 0.9; in assay [23] it was 1.
